Laboratory results: patent US20150018396A1, “PREVENTION AND TREATMENT OF RESPIRATORY INFECTION WITH PEROXISOME PROLIFERATOR ACTIVATOR RECEPTOR DELTA AGONIST” (PRESIDENT AND FELLOWS OF HARVARD COLLEGE, priority 2012, published 2015)
Entries after “also recorded” stand apart in the source; their conditions may differ.

How the values were obtained:
Noxo1 promoter [1] = experiment: Noxo1 promoter luciferase reporter in RAW macrophages; format: cell-based; settings: RAW267.4 macrophages, luciferase reporter driven by 2 kb 5′-regulatory region, treated 12 hours
Procedure: (§1) FIGS. 3a-3c show the transcriptional regulation of macrophage phagosomal function by Ppar-δ. FIGS. 3a and 3b show the expression of genes involved in NADPH oxidase complexes in cultured macrophages and alveolar macrophages, respectively. Gene expression was determined by real-time PCR. […] RAW264.7 macrophages were transfected with a luciferase reporter driven by the 2 kb 5′-regulatory region of the Noxo1 or Nox2 gene. […] Transfection was done in stably transformed wt and Ppar-δ^−/− macrophage cell lines. Data are presented as mean±SEM. *p<0.05.
(§2) To elucidate downstream targets of Ppar-δ mediating phagosomal ROS production, expression of genes involved in this process was analyzed in stably transformed wt and Ppar-δ^−/− macrophages and in alveolar lavage cells from wt and Ppar-δ^mye−/− mice after S. pneumoniae infection. […] To determine whether members of the NADPH complex are transcriptional targets of Ppar-δ, we generated luciferase reporter constructs driven by 2 kb upstream promoters of Noxo1 and Nox2. […] Indeed, we found the expression of Ppar-δ and its known target Slc25a20 increased after bacteria infection (FIG. 7a).

Noxo1 promoter [2] = experiment: Noxo1 promoter luciferase reporter in stably transformed wt and Ppar-δ−/− macrophage cell lines; format: cell-based, mouse; settings: Ppar-δ−/− macrophage cell lines vs wt
Procedure: as §1, §2
Bone marrow-derived macrophages were differentiated in L929 conditioned media as previously described^14. Stables lines were created from bone marrow of Ppar-δ^mye−/− and control mouse lines using a CreJ2 viral system^35,36. […]

S. pneumoniae = experiment: Survival in a mouse model of pneumonia (intranasal S. pneumoniae infection); format: in vivo; settings: wt C57BL/6 mice, 2 mg kg^−1 per day by gavage, 5×10^5 CFU S. pneumoniae
Procedure: (§3) Mice were infected with 5×10^5 CFU of S. pneumoniae. […] Twenty-four hours post-infection, lavage fluid was isolated and analyzed for bacterial counts. […] Mice were gavaged with GW501516 for three days. […] Alveolar macrophages were isolated and ROS was determined using FcOxyburst. Data are presented as mean±SEM. *p<0.05.
We next sought to explore the therapeutic potential of the Ppar-δ controlled phagosomal function in pathologies associated with infection. For this purpose, wt mice were infected with a higher dose of S. pneumoniae through nasal inhalation, which led to lethality in 75% of mice within 5 days post-injection (FIG. 5a). […] Taken together, our data implicate the potential use of synthetic Ppar-δ agonists to improve the outcomes of bacteria infection, such as pneumonia.
Ppar-δ floxed animals were generated as described previously^33,34. Ppar-δ mice were crossed to lysozyme cre mice (Jackson laboratory) to generate Ppar-δ^mye−/− mice. Ppar-δ^fl/fl mice were used as wt controls. All mice were maintained on a C57BL/6 background. Mice used for survival studies in FIG. 5 were C57BL/6 mice purchased from Jackson Laboratory. Bone marrow from CSS-17 mice was provided by Dr. Colleen Croniger (Case Western Reserve University). For in vivo killing assays, mice were anesthetized with a ketamine/xylazine solution and infected intranasally with 10^6 CFU S. pneumoniae. […]

Ppar-δ = experiment: Gene expression analyses of Balf cells by real-time PCR; format: in vivo, mouse; settings: mice gavaged for three days
Procedure: as §3
For gene expression analyses, we determined relative expression levels using SYBR Green-based real-time qPCR reactions. We used 36B4 expression levels for normalization. For in vitro analyses of infected macrophages, S. pneumoniae conjugated to magnetic beads were used during infection (see Bacterial Growth and Manipulation for details). Cells were infected for 1 hr with conjugated beads. At the end of the experiment, a magnet was used to separate cells that contained intracellular magnetic bacteria. These cells were used for expression analyses.

alveolar macrophages = experiment: Fc-stimulated phagosomal ROS production ex vivo in isolated alveolar macrophages (FcOxyburst); design: species or system mouse; settings: wt and Ppar-δ mye−/− mice gavaged for 3 days
Procedure: as §3
We next sought to explore the therapeutic potential of the Ppar-δ controlled phagosomal function in pathologies associated with infection. For this purpose, wt mice were infected with a higher dose of S. pneumoniae through nasal inhalation, which led to lethality in 75% of mice within 5 days post-injection (FIG. 5a). […]
Bacterial killing assays were used for in vitro bacterial killing^37,38. […] Colony forming units (CFU) were determined as a measure of bacterial survival. ROS assays were done using FcOxyburst (Invitrogen) according to manufacturers protocols and analyzed by fluorescence activated cell sorting (FACS). Phagocytosis and phagosome number were determined by FACS using Alexa Fluor 647 labeled heat killed S. pneumoniae^32. pH was determined as previously described^32. […] Macrophages were incubated with labeled bacteria and analyzed by FACS for FITC relative to Alexa Fluor 647 signal. ATP and lactate were measured using commercially available kits. […]

Cc1cc(SCc2sc(-c3ccc(C(F)(F)F)cc3)nc2C)ccc1OCC(=O)O [GW501516] was tested, and the “promoter activity of Noxo1” value (Noxo1 promoter [1]) was “increased; also recorded: able to increase activity of the promoter of Noxo1”, the “ability to induce Noxo1 promoter activity in cells lacking Ppar-δ” value (Noxo1 promoter [2]) was “lost” and the onset of death (S. pneumoniae) was “delayed onset of death”. For the same compound, the “survival compared to vehicle-treated mice” value (S. pneumoniae; 3 days prior to and every other day after infection) was “significant improvement in survival”, the “expression of Ppar-δ in Balf cells” value (Ppar-δ) was “increase” and the “expression of Ppar-δ target gene Slc25a20 in Balf cells” value (Ppar-δ) was “increase”. For the same compound, the “level of Noxa1 mRNA in Balf cells” value (Ppar-δ) was “increased”, the “level of Noxo1 mRNA in Balf cells” value (Ppar-δ) was “increased” and the “phagosome ROS production in alveolar macrophages” value (alveolar macrophages) was “increased ROS production in a Ppar-δ dependent manner; also recorded: increases phagosome ROS production”.
